Experiment [1] has as its system Lassa GP-pseudotyped-virus. Briefly: microbe, parasite or virus in culture. The arrangement: Activity against Lassa GP-pseudotyped-virus specificity: reference not given here. The experiment is classed as cell-based, Lassa fever virus.
Experiment [2] concerns Lassa fever virus (Josiah strain). Briefly: organism not typed. The experiment is classed as cell-based. The note with it: for EC50: read-out: Activity vs. LFV EC50.
Experiment [3] relates to Guanarito envelope pseudotyped virus. Briefly: organism not typed. The experiment is classed as cell-based. Conditions: read-out: EC50, pseudotyped viral infection, Guanarito envelope.
The subject of experiment [4] is Tacaribe envelope pseudotyped virus. Briefly: organism not typed. The experiment is classed as cell-based. Conditions: read-out: EC50, pseudotyped viral infection, Tacaribe envelope.
The mark [5] stands for this setting: Human immunodeficiency virus 1, read-out: Activity against Lassa GP-pseudotyped-virus EC50.

The results in this text go back to patent US8148428B2 (priority 2006, dated 2012).

Like-named read-outs stand apart in the source and are kept apart here. Bounds are passed on as bounds.

Usually EC50 stands for the concentration needed to bring the measured effect to its halfway point. Consider `CCOC(=O)C/C(C)=N/NC(=O)C1CC1c1ccccc1` (stereo not drawn) [Compound 600091, 3-[(2-Phenyl-cyclopropanecarbonyl)-hydrazono]-butyric acid ethyl ester], for which the “Activity against Lassa GP-pseudotyped-virus specificity” value in experiment [1] is given as above 18. Also, the EC50 in experiment [1] (setting [5]) was 1600 nM.

For the compound `C/C(=N\NC(=O)C1CC1c1ccccc1)c1ccc(N)cc1` (stereo not drawn) [Compound 408306, 2-Phenyl-cyclopropanecarboxylic acid [1-(4-amino-phenyl)-eth-(E)-ylidene]-hydrazide], the “Activity against Lassa GP-pseudotyped-virus specificity” value in experiment [1] is recorded as above 2000. Further, the half-maximal effective concentration (EC50) in experiment [1] (setting [5]) was found to be 20 nM. In experiment [2], the “Activity vs. LFV T.I. (therapeutic index)” value is listed as above 100 and the EC50 turned out to be 500 nM.

With `O=C1Nc2ccc([N+](=O)[O-])cc2/C1=N/NC(=O)C1CC1c1ccccc1` (stereo not drawn) [Compound 600155, 2-Phenyl-cyclopropanecarboxylic acid [5-nitro-2-oxo-1,2-dihydro-indol-(3Z)-ylidene]-hydrazide], the “Activity against Lassa GP-pseudotyped-virus specificity” value in experiment [1] is given as above 40. For the same compound, in experiment [1] (setting [5]), the EC50 worked out at 300 nM.

On to `O=C1Nc2ccccc2/C1=N\NC(=O)C1CC1c1ccccc1` (stereo not drawn) [Compound 600087, 2-Phenyl-cyclopropanecarboxylic acid [2-oxo-1,2-dihydro-indol-(3E)-ylidene]-hydrazide], for which the “Activity against Lassa GP-pseudotyped-virus specificity” value in experiment [1] is reported as above 700. Further, the concentration giving a half-maximal response (EC50) in experiment [1] (setting [5]) came out at 40 nM.

`C/C(=N\NC(=O)C1CC1c1ccccc1)c1ccc(NC(=O)c2ccco2)cc1` (stereo not drawn) [Compound 600161, Furan-2-carboxylic acid (4-[1-[(2-phenyl-cyclopropanecarbonyl)-hydrazono]-ethyl]-phenyl)-amide]: the “Activity against Lassa GP-pseudotyped-virus specificity” value in experiment [1] was >90,000. Besides, the concentration for a half-maximal effect (EC50) is 0.5 nM in experiment [1] (setting [5]), below 20 nM in experiment [2], 300 nM in experiment [3] and 800 nM in experiment [4]. Besides, the “Activity vs. LFV T.I. (therapeutic index)” value in experiment [2] was above 2000.

In the case of `C/C(=N\NC(=O)C1CC1c1ccccc1)c1ccc(N(C)C)cc1` (stereo not drawn) [Compound 600178, 2-Phenyl-cyclopropanecarboxylic acid [1-(4-dimethylamino-phenyl)-eth-(E)-ylidene]-hydrazide], in experiment [1], the “Activity against Lassa GP-pseudotyped-virus specificity” value is above 4000. Besides, in experiment [1] (setting [5]), the EC50 was below 3 nM.

`C/C(=N\NC(=O)C1CC1c1ccccc1)c1ccccc1O` (stereo not drawn) [Compound 600176, 2-Phenyl-cyclopropanecarboxylic acid [1-(2-hydroxy-phenyl)-eth-(E)-ylidene]-hydrazide]: the “Activity against Lassa GP-pseudotyped-virus specificity” value in experiment [1] was above 14. The concentration for a half-maximal effect (EC50) in experiment [1] (setting [5]) was found to be 800 nM.

Take `C/C(=N\NC(=O)C1CC1c1ccccc1)c1ccc(C2CCCCC2)cc1` (stereo not drawn) [Compound 600181, 2-Phenyl-cyclopropanecarboxylic acid [1-(4-cyclohexyl-phenyl)-eth-(E)-ylidene]-hydrazide]: the “Activity against Lassa GP-pseudotyped-virus specificity” value in experiment [1] is above 400. Moreover, in experiment [1] (setting [5]), the half-maximal effective concentration (EC50) stood at 20 nM.

On to `C/C(=N/NC(=O)C1CC1c1ccc(C(C)(C)C)cc1)c1cccc(NC(=O)c2ccccc2F)c1` (stereo not drawn) [Compound 600182, N-[3-(1-[[2-(4-tert-Butyl-phenyl)-cyclopropanecarbonyl]-hydrazono]-ethyl)-phenyl]-2-fluoro-benzamide], for which, in experiment [1], the “Activity against Lassa GP-pseudotyped-virus specificity” value is above 15. Further, the concentration giving a half-maximal response (EC50) in experiment [1] (setting [5]) was 800 nM.

On to `C/C(=N\NC(=O)C1CC1c1ccccc1)c1ccc(C)cc1` (stereo not drawn) [Compound 600124, 2-Phenyl-cyclopropanecarboxylic acid [1-p-tolyl-eth-(E)-ylidene]-hydrazide], for which, in experiment [1], the “Activity against Lassa GP-pseudotyped-virus specificity” value is recorded as above 700. In addition, the 50% effective concentration (EC50) in experiment [1] (setting [5]) is below 30 nM.

As for `C/C(=N\NC(=O)C1CC1c1ccccc1)c1ccc(NC(=O)c2ccc(Cl)s2)cc1` (stereo not drawn) [Compound 600183, 5-Chloro-thiophene-2-carboxylic acid (4-[1-[(2-phenyl-cyclopropanecarbonyl)-hydrazono]-ethyl]-phenyl)-amide], in experiment [1], the “Activity against Lassa GP-pseudotyped-virus specificity” value was above 4000. The EC50 in experiment [1] (setting [5]) was below 3 nM.

As to `CC(C)/C(=N\NC(=O)C1CC1c1ccccc1)c1ccccc1` (stereo not drawn) [Compound 600123], the “Activity against Lassa GP-pseudotyped-virus specificity” value in experiment [1] came out at 60. In addition, the EC50 in experiment [1] (read-out: Activity against Lassa GP-pseudotyped-virus EC50) was determined as 200 nM.

As for `COc1ccc(C(C)=NNC(=O)C2CC2c2ccccc2)cc1` (stereo in doubt) [Compound 600180, 2-Phenyl-cyclopropanecarboxylic acid [1-(4-methoxy-phenyl)-eth-(Z)-ylidene]-hydrazide], the “Activity against Lassa GP-pseudotyped-virus specificity” value in experiment [1] is above 4000. In experiment [1] (setting [5]), the 50% effective concentration (EC50) was below 3 nM.

Take `C/C(=N/NC(=O)C1CC1c1ccccc1)c1ccccc1Cl` (stereo not drawn) [Compound 600092, 2-Phenyl-cyclopropanecarboxylic acid [1-(2-chloro-phenyl)-eth-(Z)-ylidene]-hydrazide]: the “Activity against Lassa GP-pseudotyped-virus specificity” value in experiment [1] was 20. The 50% effective concentration (EC50) in experiment [1] (setting [5]) was 200 nM.

As for `C/C(=N\NC(=O)C1CC1c1ccccc1)C1CC1` (stereo not drawn) [Compound 600086, 2-Phenyl-cyclopropanecarboxylic acid [1-cyclopropyl-eth-(E)-ylidene]-hydrazide], the “Activity against Lassa GP-pseudotyped-virus specificity” value in experiment [1] was above 2. The EC50 in experiment [1] (setting [5]) came out at 10000 nM.

Consider `Cc1ccc2c(c1Br)C(=NNC(=O)C1CC1c1ccccc1)C(=O)N2` (stereo not drawn) [Compound 600140, 2-Phenyl-cyclopropanecarboxylic acid [4-bromo-5-methyl-2-oxo-1,2-dihydro-indol-(3E)-ylidene]-hydrazide], for which, in experiment [1], the “Activity against Lassa GP-pseudotyped-virus specificity” value is given as above 30. In addition, the EC50 in experiment [1] (setting [5]) came to 300 nM.

As to `O=C(N/N=C/c1ccccc1)[C@H]1C[C@@H]1c1ccccc1` [Compound 600075, (1S,2S)-2-Phenyl-cyclopropanecarboxylic acid [1-phenyl-meth-(E)-ylidene]-hydrazide], the concentration giving a half-maximal response (EC50) in experiment [1] (setting [5]) was above 30000 nM.

For the compound `C/C(=N/NC(=O)C1CC1c1ccccc1)c1ccc(NC(=O)C(F)(F)F)cc1` (stereo not drawn) [Compound 600187, 2,2,2-Trifluoro-N-(4-[1-[(2-phenyl-cyclopropanecarbonyl)-hydrazono]-ethyl]-phenyl)-acetamide], the “Activity against Lassa GP-pseudotyped-virus specificity” value in experiment [1] is reported as above 4000. For the same compound, in experiment [1] (setting [5]), the EC50 amounted to 3 nM.

Regarding `C/C(=N/NC(=O)C1CC1c1ccc(C(C)(C)C)cc1)c1ccc(F)cc1` (stereo not drawn) [Compound 600197, 2-(4-tert-Butyl-phenyl)-cyclopropanecarboxylic acid [1-(4-fluoro-phenyl)-eth-(Z)-ylidene]-hydrazide], the “Activity against Lassa GP-pseudotyped-virus specificity” value in experiment [1] was found to be 650. In experiment [1] (setting [5]), the 50% effective concentration (EC50) is 20 nM.

In the case of `C/C(=N\NC(=O)C1CC1c1ccccc1)c1cccc(NC(=O)c2ccccc2F)c1` (stereo not drawn) [Compound 600185], the “Activity against Lassa GP-pseudotyped-virus specificity” value in experiment [1] is recorded as above 1.3. Further, the half-maximal effective concentration (EC50) in experiment [1] (setting [5]) is 9000 nM.

As to `C/C(=N/NC(=O)C1CC1c1ccccc1)c1ccc2c3c(cccc13)CC2` (stereo not drawn) [Compound 600156], in experiment [1], the “Activity against Lassa GP-pseudotyped-virus specificity” value is recorded as “none”. Also, the EC50 in experiment [1] (setting [5]) was found to be 2000 nM.

Turning to `C/C(=N\NC(=O)C1CC1c1ccccc1)c1ccc(-c2ccccc2)cc1` (stereo not drawn) [Compound 600152, 2-Phenyl-cyclopropanecarboxylic acid [1-biphenyl-4-yl-eth-(E)-ylidene]-hydrazide], in experiment [1], the “Activity against Lassa GP-pseudotyped-virus specificity” value is on record as above 8000. Moreover, the concentration for a half-maximal effect (EC50) in experiment [1] (setting [5]) is 1 nM.

On to `COc1ccc(/C(C)=N/NC(=O)C2CC2c2ccccc2)cc1OC` (stereo not drawn) [Compound 600154, 2-Phenyl-cyctopropanecarboxylic acid [1-(3,4-dimethoxy-phenyl)-eth-(E)-ylidene]-hydrazide], for which the “Activity against Lassa GP-pseudotyped-virus specificity” value in experiment [1] was above 50. Further, in experiment [1] (setting [5]), the concentration for a half-maximal effect (EC50) was determined as 200 nM.

Take `C/C(=N\NC(=O)CCc1ccccc1)c1cccc(N)c1` [Compound 600090, 3-Phenyl-propionic acid [1-(3-amino-phenyl)-eth-(E)-ylidene]-hydrazide]: the “Activity against Lassa GP-pseudotyped-virus specificity” value in experiment [1] is given as above 18. Moreover, the EC50 in experiment [1] (setting [5]) is 1600 nM.

For `COc1ccc(/C(C)=N/NC(=O)C2CC2c2ccccc2)c(OC)c1` (stereo not drawn) [Compound 600120, 2-Phenyl-cyclopropanecarboxylic acid [1-(2,4-dimethoxy-phenyl)-eth-(E)-ylidene]-hydrazide], the “Activity against Lassa GP-pseudotyped-virus specificity” value in experiment [1] came to 180. Further, in experiment [1] (setting [5]), the EC50 was 120 nM.

With `CC(=O)Nc1ccc(/C(C)=N/NC(=O)C2CC2c2ccccc2)cc1` (stereo not drawn) [Compound 600184, N-(4-[1-[(2-phenyl-cyclopropanecarbonyl)-hydrazono]-ethyl}-phenyl)-acetamide], in experiment [1], the “Activity against Lassa GP-pseudotyped-virus specificity” value is on record as above 3000. The EC50 in experiment [1] (setting [5]) was determined as 3 nM.

In the case of `C/C(=N/NC(=O)C1CC1c1ccccc1)c1ccc(NC(=O)c2ccc(Cl)cc2Cl)cc1` (stereo not drawn) [Compound 600162, 2,4-Dichloro-N-(4-[1-[(2-Phenyl-cyclopropanecarbonyl)-hydrazono]ethyl]-phenyl)-benzamide], in experiment [1], the “Activity against Lassa GP-pseudotyped-virus specificity” value is above 4000. Further, the concentration for a half-maximal effect (EC50) in experiment [1] (setting [5]) is below 3 nM.

In the case of `COc1ccc(/C(C)=N\NC(=O)C2CC2c2ccc(C(C)(C)C)cc2)cc1[N+](=O)[O-]` (stereo not drawn) [Compound 600198, 2-(4-tert-Butyl-phenyl)-cyclopropanecarboxylic acid [1-(4-methoxy-3-nitro-phenyl)-eth-(Z)-ylidene]-hydrazide], the “Activity against Lassa GP-pseudotyped-virus specificity” value in experiment [1] is given as above 800. Besides, the EC50 in experiment [1] (setting [5]) is 14 nM.

In the case of `C/C(=N/NC(=O)C1CC1c1ccccc1)c1ccc(NC(=O)C2CC2)cc1` (stereo not drawn) [Compound 600100, Cyclopropanecarboxylic acid (4-[1-[(2-phenyl-cyclopropanecarbonyl)-hydrazono]-ethyl]-phenyl)-amide], the “Activity against Lassa GP-pseudotyped-virus specificity” value in experiment [1] is recorded as >20,000. The EC50 in experiment [1] (setting [5]) is 2 nM; in experiment [2] it was below 400 nM.

For `C/C(=N/NC(=O)C1CC1c1ccccc1)c1cccs1` (stereo not drawn) [Compound 600093, 2-Phenyl-cyclopropartecarboxylic acid [1-thiophen-2-yl-eth-(Z)-ylidene]-hydrazide], in experiment [1], the “Activity against Lassa GP-pseudotyped-virus specificity” value was determined as 2. Moreover, the EC50 in experiment [1] (setting [5]) is 14000 nM.
